Data reported in patent US20190365730A1, “ANAESTHETIC COMPOSITION COMPRISING ROPIVACAINE, PRILOCAINE AND LIDOCAINE” (priority 2017, published 2019).

Columns and labels:
[1] = tested on: intact skin of the lower arm; test: Pinprick test of anesthesis after topical application to intact skin of the lower arm; assay type: in vivo
Protocol: The pharmaceutical compositions were topically administered to intact skin of the arm and tested for anesthesis by pinpricks to a treated area of the skin. The sensation of pain was recorded for every puncture of the skin by the pin. […] The compositions were applied to intact skin of the lower arm in a circle area of a diameter of 1-2 cm. The amount of the composition applied to the skin was kept constant and left on the skin during the study. The treated area of intact skin was subjected to repeated pinpricks and the sensation of pain was recorded.

[2] = animal models, compared with bupivacaine; cited from earlier work
[3] = relative to lidocaine; cited from earlier work
[4] = compared with prilocaine, lidocaine or ropivacaine; cited from earlier work

Compound	duration of effect (effect lasted) [1]	onset of anesthesis [1]	cardiotoxicity [2]	duration time of anesthesis compared to lidocaine [3]	toxicity [4]
CCCN1CCCC[C@H]1C(=O)Nc1c(C)cccc1C.Cl.O [Ropivacaine, (S)-N-(2,6-dimethylphenyl)-1-propylpiperidine-2-carboxamide hydrochloride monohydrate]	3 h	approximately 1 hour	less cardiotoxicity than bupivacaine	about two	
CCCCN1CCCCC1C(=O)Nc1c(C)cccc1C (centres unmarked) [bupivacaine, 1-Butyl-N-(2,6-dimethylphenyl)-2-piperidinecarboxamide]					more toxic than prilocaine, lidocaine or ropivacaine
